Measured values reported in patent US20240101556A1, “COMPOUNDS AND COMPOSITIONS FOR TREATING CONDITIONS ASSOCIATED WITH STING ACTIVITY” (IFM Due, Inc., priority 2021, published 2024).

target: T1, hSTING (Homo sapiens, UniProt Q86WV6, G230A/H232R/R293Q/R71H); experiment: STING reporter assay (luciferase) in THP1-Dual KO-IFNAR2 cells stimulated with 2′3′cGAMP; format: cell-based; conditions: 2′3′cGAMP 15 μM with Lipofectamine 2000, 24 h, luciferase reporter activity, compounds 0.0017-100 μM
T1 construct: host or cells: THP1-Dual KO-IFNAR2 cells (human monocytic line)
T1 sequence (Q86WV6 whole entry R71H/G230A/H232R/R293Q): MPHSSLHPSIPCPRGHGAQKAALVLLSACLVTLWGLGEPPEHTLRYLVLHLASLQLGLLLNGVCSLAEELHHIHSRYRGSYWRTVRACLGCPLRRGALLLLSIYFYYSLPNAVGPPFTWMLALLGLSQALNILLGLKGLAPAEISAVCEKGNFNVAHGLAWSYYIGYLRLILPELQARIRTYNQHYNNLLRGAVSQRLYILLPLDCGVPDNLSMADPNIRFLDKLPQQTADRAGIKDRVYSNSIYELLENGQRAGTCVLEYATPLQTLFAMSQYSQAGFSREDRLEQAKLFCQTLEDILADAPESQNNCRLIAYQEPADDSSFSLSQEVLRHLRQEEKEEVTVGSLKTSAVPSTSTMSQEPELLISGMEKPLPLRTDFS
Procedure: STING pathway activation by the compounds described herein was measured using THP1-Dual™ cells (KO-IFNAR2).
THP1-Dual™ KO-IFNAR2 Cells (obtained from invivogen) were maintained in RPMI, 10% FCS, 5 ml P/S, 2 mM L-glut, 10 mM Hepes, and 1 mM sodium pyruvate. Compounds were spotted in empty 384 well tissue culture plates (Greiner 781182) by Echo for a final concentration of 0.0017-100 μM. Cells were plated into the TC plates at 40 μL per well, 2×10E6 cells/mL. For activation with STING ligand, 2′3′cGAMP (MW 718.38, obtained from Invivogen), was prepared in Optimem media.
The following solutions were prepared for each 1×384 plate: • Solution A: 2 mL Optimem with one of the following stimuli: • 60 μL of 10 mM 2′3′cGAMP→150 μM stock • Solution B: 2 mL Optimem with 60 μL Lipofectamine 2000→Incubate 5 min at RT
2 mL of solution A and 2 m1 Solution B was mixed and incubated for 20 min at room temperature (RT). 20 μL of transfection solution (A+B) was added on top of the plated cells, with a final 2′3′cGAMP concentration of 15 μM. The plates were then centrifuged immediately at 340 g for 1 minute, after which they were incubated at 37° C., 5% CO2, >98% humidity for 24 h. Luciferase reporter activity was then measured. EC50 values were calculated by using standard methods known in the art.
Luciferase reporter assay: 10 μL of supernatant from the assay was transferred to white 384-plate with flat bottom and squared wells. One pouch of QUANTI-Luc™ Plus was dissolved in 25 mL of water. 100 μL of QLC Stabilizer per 25 mL of QUANTI-Luc™ Plus solution was added. 50 μL of QUANTI-Luc™ Plus/QLC solution per well was then added. Luminescence was measured on a Platereader (e.g., Spectramax I3X (Molecular Devices GF3637001)).
Luciferase reporter activity was then measured. EC50 values were calculated by using standard methods known in the art.

Row | SMILES | EC50 [µM]
1 | O=C(Nc1ccc(C(F)(F)F)cc1)Nc1c[nH]c2ccc(N3CCN(Cc4ccccn4)CC3)nc12 [Compound 120, 3-(5-{4-[(pyridin-2-yl)methyl]piperazin-1-yl}-1H-pyrrolo[3,2-b]pyridin-3-yl)-1-[4-(trifluoromethyl)phenyl]urea] | 5 to 100
2 | O=C(Nc1ccc(C(F)(F)F)cc1)Nc1c[nH]c2ccc(N3CCN(Cc4ccccc4)CC3)nc12 [Compound 121, 3-[5-(4-benzylpiperazin-1-yl)-1H-pyrrolo[3,2-b]pyridin-3-yl]-1-[4-(trifluoromethyl)phenyl]urea] | 5 to 100
3 | COCCN1CCN(c2ccc3[nH]cc(NC(=O)Nc4ccc(C(F)(F)F)cc4)c3n2)CC1 [Compound 122, 3-{5-[4-(2-methoxyethyl)piperazin-1-yl]-1H-pyrrolo[3,2-b]pyridin-3-yl}-1-[4-(trifluoromethyl)phenyl]urea] | 5 to 100
4 | O=C(Nc1ccc(C(F)(F)F)cc1)Nc1c[nH]c2ccc(N3CCN(CCC(F)(F)F)CC3)nc12 [Compound 123, 1-[4-(trifluoromethyl)phenyl]-3-{5-[4-(3,3,3-trifluoropropyl)piperazin-1-yl]-1H-pyrrolo[3,2-b]pyridin-3-yl}urea] | 5 to 100
5 | CC(C)CN1CCN(c2ccc3[nH]cc(NC(=O)Nc4ccc(C(F)(F)F)cc4)c3n2)CC1 [Compound 124, 3-{5-[4-(2-methylpropyl)piperazin-1-yl]-1H-pyrrolo[3,2-b]pyridin-3-yl}-1-[4-(trifluoromethyl)phenyl]urea] | 5 to 100
6 | CN1CCN(c2ccc3[nH]cc(NC(=O)Nc4ccc(C(F)(F)F)cc4)c3n2)CC1 [Compound 125, 1-(5-(4-methylpiperazin-1-yl)-1H-pyrrolo[3,2-b]pyridin-3-yl)-3-(4-(trifluoromethyl)phenyl)urea] | 5 to 100
7 | CCN1CCN(c2ccc3[nH]cc(NC(=O)Nc4ccc(C(F)(F)F)c(Cl)c4)c3n2)CC1 [Compound 126, 1-(3-chloro-4-(trifluoromethyl)phenyl)-3-(5-(4-ethylpiperazin-1-yl)-1H-pyrrolo[3,2-b]pyridin-3-yl)urea] | 5 to 100
8 | CCN1CCN(c2ccc3[nH]cc(NC(=O)Nc4ccc(C(F)(F)F)cc4)c3n2)CC1 [Compound 127, 1-(5-(4-ethylpiperazin-1-yl)-1H-pyrrolo[3,2-b]pyridin-3-yl)-3-(4-(trifluoromethyl)phenyl)urea] | 5 to 100
9 | CC(C)(C)OC(=O)N1CCN(c2ccc3[nH]cc(NC(=O)Nc4ccc(C(F)(F)F)cc4)c3n2)CC1 [Compound 128, tert-butyl 4-(3-(3-(4-(trifluoromethyl)phenyl)ureido)-1H-pyrrolo[3,2-b]pyridin-5-yl)piperazine-1-carboxylate] | 5 to 100
10 | CC(C)c1cnn(-c2ccc3[nH]cc(NC(=O)Nc4ccc(C(F)(F)F)cc4)c3n2)c1 [Compound 131, 1-(5-(4-isopropyl-1H-pyrazol-1-yl)-1H-pyrrolo[3,2-b]pyridin-3-yl)-3-(4-(trifluoromethyl)phenyl)urea] | 5 to 100
11 | CC(C)c1ccn(-c2ccc3[nH]cc(NC(=O)Nc4ccc(C(F)(F)F)cc4)c3n2)n1 [Compound 132, 1-(5-(3-isopropyl-1H-pyrazol-1-yl)-1H-pyrrolo[3,2-b]pyridin-3-yl)-3-(4-(trifluoromethyl)phenyl)urea] | 5 to 100

Now from value to compound:

Row | EC50 [µM] | SMILES
12 | 5 to 100 | CC(C)OC1CCC(N2CCN(c3ccc4[nH]cc(NC(=O)Nc5ccc(C(F)(F)F)cc5)c4n3)CC2)CC1 (stereo not shown) [Compound 113, 3-(5-{4-[4-(propan-2-yloxy)cyclohexyl]piperazin-1-yl}-1H-pyrrolo[3,2-b]pyridin-3-yl)-1-[4-(trifluoromethyl)phenyl]urea]
13 | 5 to 100 | CC(CC(F)(F)F)N1CCN(c2ccc3[nH]cc(NC(=O)Nc4ccc(C(F)(F)F)cc4)c3n2)CC1 (stereo not shown) [Compound 114, 3-{5-[4-(4,4,4-trifluorobutan-2-yl)piperazin-1-yl]-1H-pyrrolo[3,2-b]pyridin-3-yl}-1-[4-(trifluoromethyl)phenyl]urea]
14 | 5 to 100 | O=C(Nc1ccc(C(F)(F)F)cc1)Nc1c[nH]c2ccc(N3CCN(C4CCC(C(F)(F)F)CC4)CC3)nc12 (stereo not shown) [Compound 115, 3-(5-{4-[4-(trifluoromethyl)cyclohexyl]piperazin-1-yl}-1H-pyrrolo[3,2-b]pyridin-3-yl)-1-[4-(trifluoromethyl)phenyl]urea]
15 | 5 to 100 | O=C(Nc1ccc(C(F)(F)F)cc1)Nc1c[nH]c2ccc(N3CCN(C4CCC(F)(F)CC4)CC3)nc12 [Compound 116, 3-{5-[4-(4,4-difluorocyclohexyl)piperazin-1-yl]-1H-pyrrolo[3,2-b]pyridin-3-yl}-1-[4-(trifluoromethyl)phenyl]urea]
16 | 5 to 100 | O=C(Nc1ccc(C(F)(F)F)cc1)Nc1c[nH]c2ccc(N3CCN(CC4CC4)CC3)nc12 [Compound 117, 3-{5-[4-(cyclopropylmethyl)piperazin-1-yl]-1H-pyrrolo[3,2-b]pyridin-3-yl}-1-[4-(trifluoromethyl)phenyl]urea]
17 | 5 to 100 | O=C(Nc1ccc(C(F)(F)F)cc1)Nc1c[nH]c2ccc(N3CCN(CC(F)(F)F)CC3)nc12 [Compound 118, 1-(5-(4-(2,2,2-trifluoroethyl)piperazin-1-yl)-1H-pyrrolo[3,2-b]pyridin-3-yl)-3-(4-(trifluoromethyl)phenyl)urea]
18 | 1 to 5 | O=C(Nc1ccc(C(F)(F)F)cc1)Nc1c[nH]c2ccc(N3CCN(Cc4cccnc4)CC3)nc12 [Compound 119, 3-(5-{4-[(pyridin-3-yl)methyl]piperazin-1-yl}-1H-pyrrolo[3,2-b]pyridin-3-yl)-1-[4-(trifluoromethyl)phenyl]urea]
19 | 0.2 to 1 | O=C(Nc1ccc(C(F)(F)F)cc1)Nc1c[nH]c2ccc(N3CCN(c4ccccc4)CC3)nc12 [Compound 129, 1-(5-(4-phenylpiperazin-1-yl)-1H-pyrrolo[3,2-b]pyridin-3-yl)-3-(4-(trifluoromethyl)phenyl)urea]
